What all share (assay type): cell-based
The test system of assay [1] is Colo205 colon cancer cell line. The assay is described as follows: tumor cell proliferation test (EZ4U tetrazolium), Colo205. The following applies: for IC50 / inhibition at 200 µg/mL / inhibition at 400 µg/mL: Homo sapiens; for IC50: read-out: IC50 Colo205; for inhibition at 200 µg/mL: Colo205, 200 μg/ml. As to the method:
(§1) The compounds of the invention were tested using the pancreas tumor cell lines MIYPaCa2 and BxPC3, the breast cancer cell lines MDA-MB-435 and BT20, as well as the colon cancer cell lines Colo205 and HT29. The cells were placed in culture medium (RPMI-1640 with 10% fetal calf serum and 4 mM glutamine) in 96-well microtiter plates to make 10,000 cells per well. The inventive components to be tested were diluted in microtiter plates according to the well-known procedure and incubated for 4 days under cell culture conditions (37° C., 5% CO2).
(§2) Following incubation, the proliferation was tested using a tetrazolium-based EZ4U kit from Biomedica (Vienna, Austria). The optical density (OD) of each well was determined by means of an ELISA Reader, and the control medium obtained was set to 100% (OD490 nm=0.5 to 1.5). The values in Table 1 are given in %, showing the inhibition of cellular proliferation, the concentration being 400 μg/ml (higher value) and 200 μg/ml (lower value).
(§3) In further tests, substances were dissolved in water, and their effect on the colon adenocarcinoma cell line Colo205 and pancreas adenocarcinoma cell line BxPC3 as targets was tested. The results obtained, in IC50 concentrations in μg/ml, are illustrated in Table 2.
(§4) A proliferation test—as described above—with an initial dilution of 400 μg/ml was carried out, either alone or in combination with 400, 200 or 100 μg of CHP. The cell lines used are illustrated in Table 3. […] Frequently, the proliferation is increased, or the inhibition achieved with specific substances is lower when using combined agents. The effect of CHP alone is shown on the left in the table, below each specified cell line, for the highest concentration of CHP (400 μg/ml).
(§5) Furthermore, (R)-(+)-α,α-diphenyl-2-pyrrolidinemethanol and (S)-(−)-α,α-diphenyl-2-pyrrolidinemethanol were tested. […] The results are given as IC50 (μg/ml).

Assay [2] deals with BxPC3 pancreas tumor cell line. Kind of assay: tumor cell proliferation test (EZ4U tetrazolium), BxPC3. The following applies: for IC50 / inhibition at 200 µg/mL / inhibition at 400 µg/mL: Homo sapiens; for IC50: BXPC-3, read-out: IC50 BxPC3; for inhibition at 200 µg/mL / inhibition at 400 µg/mL: BXPC-3, 96 h, 4 days, read-out: inhibition of cellular proliferation; for inhibition at 200 µg/mL: BxPC3, 200 μg/ml; for inhibition at 400 µg/mL: BxPC3, 400 μg/ml. As to the method:
as §1, §2, §3, §5

Assay [3] concerns MIA-PaCa2 pancreas tumor cell line. Kind of assay: tumor cell proliferation test (EZ4U tetrazolium), MIA-PaCa2. Particulars: Homo sapiens, MIA PaCa-2, 96 h, 4 days, read-out: inhibition of cellular proliferation; for inhibition at 200 µg/mL: MIA-PaCa2, 200 μg/ml; for inhibition at 400 µg/mL: MIA-PaCa2, 400 μg/ml. As for the experimental part:
as §1, §2, §5

Assay [4] deals with MDA-MB435 breast cancer cell line. Kind of assay: tumor cell proliferation test (EZ4U tetrazolium), MDA-MB435. Particulars: Homo sapiens, MDA-MB-435, 96 h, 4 days, read-out: inhibition of cellular proliferation; for inhibition at 200 µg/mL: MDA-MB435, 200 μg/ml; for inhibition at 400 µg/mL: MDA-MB435, 400 μg/ml. As to the method:
as §1, §2

In assay [5] the test system is BT20 breast cancer cell line. The assay is described as follows: tumor cell proliferation test (EZ4U tetrazolium), BT20. Particulars: Homo sapiens, BT-20, 96 h, 4 days, read-out: inhibition of cellular proliferation; for inhibition at 200 µg/mL: BT20, 200 μg/ml; for inhibition at 400 µg/mL: BT20, 400 μg/ml. As to the method:
as §1, §2

Assay [6] has as its system HT29 colon cancer cell line. Kind of assay: tumor cell proliferation test (EZ4U tetrazolium), HT29. Particulars: Homo sapiens, HT-29, 96 h, 4 days, read-out: inhibition of cellular proliferation; for inhibition at 200 µg/mL: HT29, 200 μg/ml; for inhibition at 400 µg/mL: HT29, 400 μg/ml. As for the experimental part: as §1, §2
Assay [7] deals with all 6 cell lines (MIA-PaCa2, Colo205, BxPC3, MDA-MB435, BT20, HT29). The assay is described as follows: tumor cell proliferation test, mean value for all 6 cell lines. Particulars: 400 μg/ml; read-out: inhibition; mean value±SEM for all 6 cell lines. As for the experimental part:
as §1, §2

The test system of assay [8] is T47D breast cancer cell line. Kind of assay: tumor cell proliferation test, T47D. As to the method:
as §1, §2, §4, §5

In assay [9] the test system is SW620 colon cancer cell line. Kind of assay: tumor cell proliferation test, SW620. As to the method: as §1, §2, §4
The mark [10] stands for this setting: COLO 205, substances dissolved in water.
The mark [11] stands for this setting: COLO 205, 96 h, 4 days, read-out: inhibition of cellular proliferation.
[12] abbreviates: COLO 205, 96 h, Colo205, 400 μg/ml, 4 days, read-out: inhibition of cellular proliferation.

In brackets after ≈: the same amount, converted by molar mass. Like-named read-outs stand apart in the source and are kept apart here. Bounds are passed on as bounds.

Consider `Br.CC(C)COC(=O)[C@@H]1CC(O)CN1C(c1ccccc1)c1ccccc1` (stereo partly drawn) [Substance A2-04, 4-hydroxy-1-diphenylmethylproline isobutyl ester hydrobromide], for which the results for the IC50 in assay [1] (setting [10]) and in assay [2] (substances dissolved in water) were 6.2 µg/mL and 12 µg/mL, respectively.

For the compound `CC(C)COC(=O)[C@@H]1CC(O)CN1C` (stereo partly drawn) [Substance A2.21, 4-hydroxy-1-methylproline isobutyl ester], the inhibition at 200 µg/mL in assay [3] is 4.5%; in assay [1] (setting [11]), 14.1%; in [2], 18.2%; in assay [4], 4.5%; in [5] it was 5.2%; in assay [6], 4.1%. The inhibition at 400 µg/mL in assay [3] stood at 23.9%; in [1] (setting [12]), 10%; in assay [2] it was 4.9%; in assay [4], 3.1%; in assay [5] it was 3.9%; in assay [6], 1.3%. Also, in assay [7], the inhibition at 400 µg/mL is under 8%.

For the compound `CC(C)COC(=O)[C@@H]1CC(OC(=O)Nc2ccccc2)CN1C` (stereo partly drawn) [Substance A2.23, 1-methyl-4-phenylaminocarbonyloxyproline isobutyl ester], the inhibition at 200 µg/mL is 14.2% in assay [3]; 19.2% in [1] (setting [11]); 15.4% in [2]; 5.5% in assay [4]; 0% in assay [5]; -5% in assay [6]. Also, the inhibition at 400 µg/mL in [3] is 0.3%; in assay [1] (setting [12]) it was 14.1%; in [2] it was 2.1%; in assay [4] it was 8.6%; in assay [5], 0%; in assay [6] it was -5.3%. The inhibition at 400 µg/mL in assay [7] is under 8%.

Turning to `CCOC(=O)C1CC(O)C[N+]1(C)C` (stereo not drawn) [Substance A1-01, 4-hydroxy-1,1-dimethylproline ethyl ester iodide], the IC50 (as a rule, the concentration that inhibits the measured activity by half) in [1] (setting [10]) is over 400 µg/mL; in assay [2] (substances dissolved in water), 70 µg/mL.

`CCOC(=O)C1CC(O)CN1` [Substance A-1, cis-hydroxy-L-proline ethyl ester]: the values for the half-inhibitory concentration (IC50) in assay [1] (setting [10]) and in assay [2] (substances dissolved in water) were 50 µg/mL and 5 µg/mL (≈ 31.4 µM), respectively.

`CC(C)COC(=O)[C@@H]1CC(O)CN1C1CCCCC1` (stereo partly drawn) [Substance A2-03, 4-hydroxy-1-cyclohexylproline isobutyl ester]: the values for the IC50 in assay [1] (setting [10]) and in assay [2] (substances dissolved in water) were 50 µg/mL and 50 µg/mL (≈ 186 µM), respectively.

For `CCOC(=O)[C@@H]1CC(O)CN1C` (stereo partly drawn) [Substance A1.21, 4-hydroxy-1-methylproline ethyl ester], the inhibition at 200 µg/mL in assay [3] is 7.4%; in assay [1] (setting [11]), 23.7%; in assay [2], 25%; in assay [4], 15.6%; in assay [5] it was 22.2%; in assay [6] it was 7.3%. For the same compound, the inhibition at 400 µg/mL in assay [3] worked out at 38.8%; in assay [1] (setting [12]), 32.7%; in assay [2], 13.4%; in assay [4], 53.5%; in [5] it was 80.1%; in assay [6], 0.5%. For the same compound, the inhibition at 400 µg/mL in [7] came to 36.5 ± 11.4%.

Consider “4-hydroxy-1,1-dimethylproline isobutyl ester iodide [Substance A2-01]”, for which the “IC50 Colo205” value in assay [1] (substances dissolved in water) is over 400 µg/mL. For the same compound, the “IC50 BxPC3” value in assay [2] (substances dissolved in water) was 50 µg/mL.

In the case of `CN1CC(O)C[C@H]1C(=O)O` (stereo partly drawn) [Substance A0.21, 4-hydroxy-1-methylproline], the inhibition at 200 µg/mL in [3] turned out to be 21.1%; in assay [1] (setting [11]), 21.1%; in [2], 21.9%; in [4] it was 26.9%; in assay [5], 18.3%; in assay [6], 4.8%. The inhibition at 400 µg/mL is 22.8% in [3]; 16.3% in assay [1] (setting [12]); 8.2% in assay [1] (COLO 205, Colo205, A0.21 400 μg/ml alone (Con), read-out: % inhibition of proliferation (minus signs)); 16.2% in assay [2]; 23.2% in assay [4]; 14.9% in assay [5]. For the same compound, the inhibition at 400 µg/mL in [6] is 4.7%; in assay [8] (Homo sapiens, A0.21 400 μg/ml alone (Con), read-out: % inhibition of proliferation (minus signs)), 0.4%; in [9] (Homo sapiens, SW-620, A0.21 400 μg/ml alone (Con), read-out: % inhibition of proliferation (minus signs)) it was 5.2%; in assay [7] it was 16.3 ± 2.7%. For the same compound, the “% inhibition of proliferation (minus signs)” value was −3.5% in [1] (Colo205, A0.21 100 alone (Con)); −4.0% in [1] (Colo205, A0.21 200 alone (Con)); −1.8% in [8] (A0.21 100 alone (Con)); −1.2% in assay [8] (A0.21 200 alone (Con)); −5.8% in assay [9] (A0.21 100 alone (Con)); −6.3% in [9] (A0.21 200 alone (Con)).

As for `CCOC(=O)[C@@H]1CC(OC(=O)Nc2ccccc2)CN1C` (stereo partly drawn) [Substance A1.23, 1-methyl-4-phenylaminocarbonyloxyproline ethyl ester], the inhibition at 200 µg/mL in [3] stood at 16%; in assay [1] (setting [11]), 17.2%; in assay [2], 17.8%; in assay [4] it was 8.7%; in assay [5] it was 4.4%; in [6] it was 8.5%. The inhibition at 400 µg/mL in assay [3] turned out to be 8.3%; in assay [1] (setting [12]), 7.3%; in assay [2], 0%; in [4], 4.5%; in [5] it was 1.3%; in assay [6] it was 1.9%. Moreover, in [7], the inhibition at 400 µg/mL was under 8%.
